# Measurements as given in PubChem BioAssay (NCI).
# Where “and” joins values, the source holds several entries; their conditions need not be identical. Identical values can stand only once.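 Five concentrations, 48 hours, 96-well plates. Here, GI50 denotes the concentration required for 50% inhibition of growth. TGI is the concentration that stops growth completely.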
# System: SK-OV-3 ovarian
# Test: inhibition of tumour cell growth, NCI panel, 48 h
Compound,GI50,TGI
CC(=C(c1ccc(OCCN2CCCCC2)cc1)c1ccc(OCCN2CCCCC2)cc1)c1ccc(Cl)cc1,0.428 µM,0.806 µM
C=C(C)C(=O)O[C@@H]1C[C@@]2(C)O[C@@H]2C[C@H](O)/C(C)=C/[C@H]2OC(=O)C(=C)[C@@H]21,,> 100 µM
C=CC(=O)Nc1cc(Nc2nccc(-c3cn(C)c4ccccc34)n2)c(OC)cc1N(C)CCN(C)C,0.0501 µM and 0.0311 µM,18.1 µM and > 10 µM
Cc1ccc(-c2nc(N3CCNCC3)c3oc(-c4ccc(C)cc4)nc3n2)cc1,> 43.2 µM,> 59.2 µM
C=C1C(=O)O[C@H]2[C@H]1CC/C(CNC(=O)c1cc3ccccc3[nH]1)=C\CC[C@@]1(C)O[C@@H]21,11.6 µM,23.8 µM
Cc1cc2c(cc1C)[n+](=O)c(C(=O)c1ccccc1)c(C(F)F)n2[O-],54.5 µM,> 100 µM
Cc1ccc(NC2=C3CCCCC3OC2=O)cc1 (stereo not drawn),> 100 µM,> 100 µM
COc1cc2c(cc1OC)C(Cl)C(c1ccc(F)cc1)=C2Cl (stereo not drawn),,41.9 µM
COc1ccc2ncnc(Nc3ccc(OCc4ccccc4)cc3)c2c1,3.41 µM,> 23.6 µM
O=C1c2c(F)c(F)c(F)c(F)c2C(=O)N1c1ccc(F)cc1F,20.7 µM,50.2 µM
CC(C)[C@@H]1NC(=O)[C@]2(C)CSC(=N2)c2ccnc(c2)CNC(=O)C[C@@H](/C=C/CCS)OC1=O,0.0354 µM,0.197 µM
OC(c1cc(C(F)(F)F)nc2c(C(F)(F)F)cccc12)C1CCCCN1 (stereo not drawn),1.95 µM,4.32 µM
C/C=C/[C@@H]1O[C@@H]2COC(=O)C2=C[C@@H]1O,25.9 µM,> 58.4 µM
COC(=O)/C=C/c1cc(OC(C)=O)c2c(c1)[C@@H](C(=O)OC)[C@H](c1ccc(OC(C)=O)c(OC(C)=O)c1)O2,0.417 µM,41.9 µM

# System: T-47D breast
# Test: inhibition of tumour cell growth, NCI panel, 48 h
Compound,GI50,TGI
CC[C@@H](c1ccc(O)c(O)c1)[C@@H](CC)c1ccc(O)c(O)c1,2.48 µM,7.96 µM
O=C1OCC2=C1C(c1cccc(Br)c1)c1cc3c(cc1N2CCO)OCCO3 (stereo not drawn),0.379 µM,> 41.3 µM
COc1cc(-c2nn(-c3cccc(NC(=O)c4ccccc4)c3)cc2-c2ccncc2)ccc1Cl,0.843 µM,> 100 µM
O=C1CSC(=S)N1/N=C/c1ccc(Cl)c([N+](=O)[O-])c1,,59.3 µM
CCCCCCCCCCSC(=N)N (tested in a mixture with another compound),1.86 µM,4.95 µM
CCOc1ccc(NC2=CC(=O)C(=O)c3ccccc32)cc1,,27.9 µM
COc1cc2c(cc1OC)-c1cc(OC)c(OC)cc1C(CN(C)C)C2 (stereo not drawn),> 10 µM,> 10 µM
O=C1c2ccccc2C(=O)c2c(/C=C\N3CCCCC3)ccnc21,,> 44 µM
O=C(NC1CCCCC1)NS(=O)(=O)c1ccc(N2N=C3c4ccccc4CC3C2c2ccc(Cl)cc2)cc1 (stereo not drawn),22.6 µM,> 100 µM
c1ccc(-c2n(Cc3ccc4ccccc4n3)cc[n+]2Cc2ccc3ccccc3c2)cc1,0.378 µM,4.36 µM
C[C@@H]1CC[C@H]2C(C)(C)[C@H]3C[C@@]12CC[C@@]3(C)O,,> 100 µM
O=C(Nc1cccc(C(F)(F)F)c1)Nc1cccc(C(F)(F)F)c1,0.398 µM,2.94 µM
CC(C)(C)[Si](C)(C)OC1[C@@H](O[Si](C)(C)C(C)(C)C)[C@@H](CNC(=O)NC(=O)C(F)(F)F)O[C@H]1n1cnc2c(NC(=O)Nc3ccccc3)ncnc21 (stereo partly drawn),5.64 µM,11.8 µM
CC(=C(c1ccc(OCCN2CCCCC2)cc1)c1ccc(OCCN2CCCCC2)cc1)c1ccc(Cl)cc1,0.43 µM,1.04 µM
C=C(C)C(=O)O[C@@H]1C[C@@]2(C)O[C@@H]2C[C@H](O)/C(C)=C/[C@H]2OC(=O)C(=C)[C@@H]21,,> 100 µM
C=CC(=O)Nc1cc(Nc2nccc(-c3cn(C)c4ccccc34)n2)c(OC)cc1N(C)CCN(C)C,0.815 µM and 0.363 µM,11.6 µM and > 10 µM
Cc1ccc(-c2nc(N3CCNCC3)c3oc(-c4ccc(C)cc4)nc3n2)cc1,25.7 µM,> 61.1 µM
C=C1C(=O)O[C@H]2[C@H]1CC/C(CNC(=O)c1cc3ccccc3[nH]1)=C\CC[C@@]1(C)O[C@@H]21,1.65 µM,4.8 µM
Cc1cc2c(cc1C)[n+](=O)c(C(=O)c1ccccc1)c(C(F)F)n2[O-],30.3 µM,> 100 µM
Cc1ccc(NC2=C3CCCCC3OC2=O)cc1 (stereo not drawn),29.3 µM,> 100 µM
COc1cc2c(cc1OC)C(Cl)C(c1ccc(F)cc1)=C2Cl (stereo not drawn),,21.7 µM
COc1ccc2ncnc(Nc3ccc(OCc4ccccc4)cc3)c2c1,5.37 µM,> 25 µM
O=C1c2c(F)c(F)c(F)c(F)c2C(=O)N1c1ccc(F)cc1F,19.7 µM,46.8 µM
CC(C)[C@@H]1NC(=O)[C@]2(C)CSC(=N2)c2ccnc(c2)CNC(=O)C[C@@H](/C=C/CCS)OC1=O,1.73 µM,6.91 µM
OC(c1cc(C(F)(F)F)nc2c(C(F)(F)F)cccc12)C1CCCCN1 (stereo not drawn),1.76 µM,4.11 µM
C/C=C/[C@@H]1O[C@@H]2COC(=O)C2=C[C@@H]1O,6.31 µM,24.2 µM
COC(=O)/C=C/c1cc(OC(C)=O)c2c(c1)[C@@H](C(=O)OC)[C@H](c1ccc(OC(C)=O)c(OC(C)=O)c1)O2,0.452 µM,67.3 µM

# System: UACC-257 melanoma
# Test: inhibition of tumour cell growth, NCI panel, 48 h
Compound,GI50,TGI
CC[C@@H](c1ccc(O)c(O)c1)[C@@H](CC)c1ccc(O)c(O)c1,14.9 µM,38.1 µM
O=C1OCC2=C1C(c1cccc(Br)c1)c1cc3c(cc1N2CCO)OCCO3 (stereo not drawn),0.0261 µM,15.3 µM
COc1cc(-c2nn(-c3cccc(NC(=O)c4ccccc4)c3)cc2-c2ccncc2)ccc1Cl,0.63 µM,> 100 µM
O=C1CSC(=S)N1/N=C/c1ccc(Cl)c([N+](=O)[O-])c1,,62.8 µM
CCCCCCCCCCSC(=N)N (tested in a mixture with another compound),2.46 µM,5.93 µM
CCOc1ccc(NC2=CC(=O)C(=O)c3ccccc32)cc1,,3.04 µM
COc1cc2c(cc1OC)-c1cc(OC)c(OC)cc1C(CN(C)C)C2 (stereo not drawn),> 10 µM,> 10 µM
O=C1c2ccccc2C(=O)c2c(/C=C\N3CCCCC3)ccnc21,,3.22 µM
O=C(NC1CCCCC1)NS(=O)(=O)c1ccc(N2N=C3c4ccccc4CC3C2c2ccc(Cl)cc2)cc1 (stereo not drawn),19.7 µM,53 µM
c1ccc(-c2n(Cc3ccc4ccccc4n3)cc[n+]2Cc2ccc3ccccc3c2)cc1,0.557 µM,3.03 µM
C[C@@H]1CC[C@H]2C(C)(C)[C@H]3C[C@@]12CC[C@@]3(C)O,,> 100 µM
O=C(Nc1cccc(C(F)(F)F)c1)Nc1cccc(C(F)(F)F)c1,1.31 µM,4.95 µM
CC(C)(C)[Si](C)(C)OC1[C@@H](O[Si](C)(C)C(C)(C)C)[C@@H](CNC(=O)NC(=O)C(F)(F)F)O[C@H]1n1cnc2c(NC(=O)Nc3ccccc3)ncnc21 (stereo partly drawn),7.19 µM,15 µM
CC(=C(c1ccc(OCCN2CCCCC2)cc1)c1ccc(OCCN2CCCCC2)cc1)c1ccc(Cl)cc1,0.454 µM,0.884 µM
C=C(C)C(=O)O[C@@H]1C[C@@]2(C)O[C@@H]2C[C@H](O)/C(C)=C/[C@H]2OC(=O)C(=C)[C@@H]21,,> 100 µM
C=CC(=O)Nc1cc(Nc2nccc(-c3cn(C)c4ccccc34)n2)c(OC)cc1N(C)CCN(C)C,1.71 µM and 1.8 µM,3.27 µM and 3.37 µM
Cc1ccc(-c2nc(N3CCNCC3)c3oc(-c4ccc(C)cc4)nc3n2)cc1,> 45.7 µM,> 65.9 µM
Cc1ccc(NC2=C3CCCCC3OC2=O)cc1 (stereo not drawn),63.1 µM,> 100 µM
COc1cc2c(cc1OC)C(Cl)C(c1ccc(F)cc1)=C2Cl (stereo not drawn),,28.8 µM
COc1ccc2ncnc(Nc3ccc(OCc4ccccc4)cc3)c2c1,7.47 µM,> 25 µM
O=C1c2c(F)c(F)c(F)c(F)c2C(=O)N1c1ccc(F)cc1F,21.8 µM,57.2 µM
CC(C)[C@@H]1NC(=O)[C@]2(C)CSC(=N2)c2ccnc(c2)CNC(=O)C[C@@H](/C=C/CCS)OC1=O,0.0376 µM,0.526 µM
OC(c1cc(C(F)(F)F)nc2c(C(F)(F)F)cccc12)C1CCCCN1 (stereo not drawn),2.2 µM,6.53 µM
C/C=C/[C@@H]1O[C@@H]2COC(=O)C2=C[C@@H]1O,21 µM,36.9 µM
COC(=O)/C=C/c1cc(OC(C)=O)c2c(c1)[C@@H](C(=O)OC)[C@H](c1ccc(OC(C)=O)c(OC(C)=O)c1)O2,1.45 µM,56.2 µM
